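Each compound was tested at five concentrations against cells in 96-well plates for 48 hours. At the GI50, growth is halved.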 Active and inactive are the calls of the source. Cut-off read from the data, not from the text of the source: active = GI50 up to about 1.1 µM and inactive = higher.
What was measured:
Assay in all cases: NCI anticancer screen, dose series, 48 h
HCT-15 = tested on: HCT-15
KM12 = tested on: KM12
EKVX = tested on: EKVX
MOLT-4 = tested on: MOLT-4
UO-31 = tested on: UO-31
SW-620 = tested on: SW-620
OVCAR-3 = tested on: OVCAR-3
DU-145 = tested on: DU-145
HCC 2998 = tested on: HCC 2998
A498 = tested on: A498
NCI/ADR-RES = tested on: NCI/ADR-RES
LOX IMVI = tested on: LOX IMVI
OVCAR-5 = tested on: OVCAR-5
M14 = tested on: M14
NCI-H522 = tested on: NCI-H522
NCI-H23 = tested on: NCI-H23
RPMI-8226 = tested on: RPMI-8226
786-0 = tested on: 786-0
MDA-MB-435 = tested on: MDA-MB-435
SK-MEL-5 = tested on: SK-MEL-5
TK-10 = tested on: TK-10
HT-29 = tested on: HT-29
SK-OV-3 = tested on: SK-OV-3
CCRF-CEM = tested on: CCRF-CEM
MCF7 = tested on: MCF7
T47D = tested on: T47D
OVCAR-8 = tested on: OVCAR-8
IGROV-1 = tested on: IGROV-1
MDA-N = tested on: MDA-N
HCT-116 = tested on: HCT-116
NCI-H226 = tested on: NCI-H226
SF-539 = tested on: SF-539
HOP-92 = tested on: HOP-92
SN12C = tested on: SN12C
HOP-62 = tested on: HOP-62
UACC-257 = tested on: UACC-257
A549 = tested on: A549
MDA-MB-231 = tested on: MDA-MB-231
COLO 205 = tested on: COLO 205
SF-268 = tested on: SF-268
U-251 = tested on: U-251
SNB-19 = tested on: SNB-19
UACC-62 = tested on: UACC-62
OVCAR-4 = tested on: OVCAR-4
SF-295 = tested on: SF-295
CAKI-1 = tested on: CAKI-1
K562 = tested on: K562
SR = tested on: SR
SK-MEL-2 = tested on: SK-MEL-2
BT-549 = tested on: BT-549
ACHN = tested on: ACHN
PC-3 = tested on: PC-3
SK-MEL-28 = tested on: SK-MEL-28
HL-60 = tested on: HL-60
NCI-H460 = tested on: NCI-H460
SNB-75 = tested on: SNB-75
RXF 393 = tested on: RXF 393
Hs-578T = tested on: Hs-578T
Malme-3M = tested on: Malme-3M

Measured: GI50

O=CNCCCN1CCN(CCCNC=O)CC1
inactive: KM12 > 100 µM | EKVX > 100 µM | MOLT-4 > 100 µM | UO-31 > 100 µM | SW-620 > 100 µM | OVCAR-3 > 100 µM | DU-145 > 100 µM | HCC 2998 > 100 µM | A498 > 100 µM | NCI/ADR-RES > 100 µM | LOX IMVI > 100 µM | OVCAR-5 > 100 µM | M14 > 100 µM | NCI-H522 1.6 µM | NCI-H23 > 100 µM | RPMI-8226 > 100 µM | 786-0 > 100 µM | MDA-MB-435 > 100 µM | SK-MEL-5 > 100 µM | TK-10 > 100 µM | HT-29 > 100 µM | SK-OV-3 > 100 µM | CCRF-CEM > 100 µM | MCF7 > 100 µM | T47D > 100 µM | OVCAR-8 > 100 µM | IGROV-1 > 100 µM | MDA-N > 100 µM | HCT-116 > 100 µM | NCI-H226 > 100 µM | SF-539 > 100 µM | HOP-92 > 100 µM | SN12C > 100 µM | HOP-62 > 100 µM | UACC-257 > 100 µM | A549 > 100 µM | MDA-MB-231 > 100 µM | COLO 205 > 100 µM | SF-268 4.88 µM | U-251 > 100 µM | SNB-19 > 100 µM | UACC-62 > 100 µM | OVCAR-4 > 100 µM | SF-295 > 100 µM | CAKI-1 > 100 µM | K562 > 100 µM | SR > 100 µM | SK-MEL-2 > 100 µM | BT-549 > 100 µM | ACHN > 100 µM | PC-3 > 100 µM | SK-MEL-28 > 100 µM | HL-60 > 100 µM
> 100 µM: HCT-15

Cc1cc(C)c2c(c1)CC1(Cc3ccc(C)c(C)c3C1=O)C2=O (stereo not drawn)
inactive: UO-31 > 100 µM | OVCAR-3 > 100 µM | DU-145 > 100 µM | HCC 2998 > 100 µM | A498 > 100 µM | LOX IMVI > 100 µM | NCI-H460 > 100 µM | OVCAR-5 > 100 µM | M14 > 100 µM | SNB-75 > 100 µM | NCI-H522 > 100 µM | NCI-H23 > 100 µM | RPMI-8226 > 100 µM | 786-0 > 100 µM | MDA-MB-435 2.24 µM | SK-MEL-5 > 100 µM | TK-10 49.8 µM | SK-OV-3 > 100 µM | T47D > 100 µM | OVCAR-8 > 100 µM | SF-539 > 100 µM | HOP-92 > 100 µM | SN12C > 100 µM | UACC-257 > 100 µM | A549 > 100 µM | MDA-MB-231 6.24 µM | RXF 393 15.8 µM | SF-268 > 100 µM | U-251 45.2 µM | Hs-578T 11.4 µM | SNB-19 > 100 µM | UACC-62 > 100 µM | OVCAR-4 45.9 µM | Malme-3M 3.56 µM | CAKI-1 > 100 µM | SK-MEL-2 > 100 µM | BT-549 > 100 µM | PC-3 56.2 µM | SK-MEL-28 > 100 µM

CCN(CC)CCNc1n[n+]([O-])c2ccccc2[n+]1[O-]
2 µM: HCT-15
inactive: KM12 9.98 µM | MOLT-4 1.73 µM | UO-31 17.9 µM | SW-620 11.9 µM | OVCAR-3 9.02 µM | DU-145 13.9 µM | HCC 2998 3.39 µM | NCI/ADR-RES 18.6 µM | OVCAR-5 14.7 µM | M14 10.1 µM | RPMI-8226 3.06 µM | 786-0 4.74 µM | MDA-MB-435 22.3 µM | SK-MEL-5 1.57 µM | TK-10 8.89 µM | HT-29 8.93 µM | CCRF-CEM 3.57 µM | T47D 5.32 µM | OVCAR-8 8.65 µM | IGROV-1 2.43 µM | MDA-N 12.2 µM | HCT-116 8.22 µM | NCI-H226 9.93 µM | SF-539 17.7 µM | SN12C 3.56 µM | COLO 205 5.52 µM | RXF 393 8.63 µM | SF-268 18.9 µM | U-251 12.6 µM | SNB-19 12.5 µM | UACC-62 3.96 µM | Malme-3M 8.38 µM | SF-295 4.78 µM | K562 3.25 µM | BT-549 17.7 µM | ACHN 3.79 µM | PC-3 8.53 µM | SK-MEL-28 39.3 µM | HL-60 2.28 µM
